Test results reported in US7247615B2, “Peptide agonists of prostate-specific antigen and uses therefor” (priority 2001, dated 2007).
Where “and” joins values, the source holds several entries; their conditions need not be identical. Equal entries are not always repeated.

Columns and labels:
CD8+ cells (T-PSA-3) = experiment: Apoptosis (TUNEL) assay of peptide-stimulated T cells; type: cell-based, human; details: T cells stimulated with peptide-pulsed autologous B cells, IVS-5, TUNEL
Text: FIGS. 5A–5C. DNA fragmentation in peptide stimulated T cells using the TUNEL assay. Apoptosis of CD8^+ cells activated by PSA peptide pulsed autologous B cells. FIG. 5A: T-PSA-3 cells stimulated with B cells with no peptide; FIG. 5B: T-PSA-3 cells stimulated with B cells pulsed with PSA-3 peptide; FIG. 5C: T-PSA-3 cells stimulated with B cells pulsed with PSA-3A peptide. Numbers in each histogram indicate percent of apoptotic cells (cells above line) as described in the Examples section.
Apoptosis Assay. T cells were incubated for 48 h in the presence of peptide-pulsed autologous B cells as described in the IVS procedure, above, and replated to 96-well plates for 24 h. Apoptosis was analyzed using the terminal deoxynucleotidyl transferase-mediated nick-end labeling (TUNEL) assay (Y. Gavrieli et al., 1992, J. Cell Biol. 119:493–501).

T-PSA-3 cells = experiment: Cytometric Bead Array cytokine production by peptide-stimulated T cells; type: cell-based, human; details: T-PSA-3 + peptide-pulsed autologous B cells, 24 h supernatant
Protocol: (§1) Detection of Cytokines. Supernatant of T cells exposed for 24 h to peptide-pulsed infected DC, rV-PSA infected DC, or rV-PSA-3A infected DC, in IL-2-free medium at various responder: stimulator ratios, were screened for secretion of IFN-γ using an ELISA kit (R & D Systems, Minneapolis, Minn.). The results were calculated as pg/ml. A Cytometric Bead Array (CBA) system (BD PharMingen, San Diego, Calif.) was also used to determine the secretion of multiple cytokines by specific T cell lines. The CBA system uses the fluorescence detection by flow cytometry to measure soluble analytes in a particle-based immunoassay. The BD human Th1/Th2 cytokine CBA Kit was employed to measure IL-2, IL-4, IL-5, IL-10, TNF-α, and IFN-γ protein levels in a single sample. The cytokine capture beads were mixed with PE-conjugated detection antibodies and then incubated with recombinant cytokine standards or test samples to form sandwich complexes. The samples results were generated in graphical and tabular format using BD CBA analysis software. The results were calculated as pg/ml.
The cytokine profile of T cells stimulated with APCs pulsed with either the PSA-3 or the PSA-3A peptide was then analyzed. The T cell line derived using the PSA-3 peptide was used in these studies, and the APCs used were autologous B cells. A Cytometric Bead Array (CBA) assay was used for analysis (see Examples section) using supernatant fluids obtained 24 h after stimulation. FIGS. 6A–6C illustrate […] of the 10 internal standards used for the calibration of the results obtained in this assay. FIGS. 6D–6F show the levels of each of six cytokines produced by T cells stimulated with APCs pulsed with no peptide, PSA-3A peptide, and PSA-3 peptide, respectively. […] The results obtained for IL-5 will be discussed below (Conclusions section).

[1] = tested on: HLA-A2/K^b transgenic mice; experiment: Immunization of HLA-A2.1/Kb transgenic mice with peptide-pulsed DCs, IFN-γ production by T cells; type: in vivo, mouse; details: 24 h
Text: Transgenic Mice. HLA-A2.1/K^b transgenic mice were kindly provided by Dr. L. Sherman (Scripps Laboratories, San Diego, Calif.). Transgenic mice express the product of the HLA-A2.1/Kb chimeric gene in which the alpha-3 domain of the heavy chain is replaced by mouse H-2/K^b domain, but the HLA-A2.1 alpha-1 and alpha-2 domains are unaltered (A. Vitiello et al., 1991, J. Exp. Med. 173:1007–1015; V. H. Engelhard et al., 1991, J. Immunol. 46:1226–1232).
In Vivo Immunization and Murine T cell Cultures. Three groups of HLA-A2.1/K^b transgenic mice (three mice per group) were immunized s.c. (subcutaneously) in the base of the tail with PSA-3 peptide-pulsed HLA-A2.1/K^b DC, PSA-3A peptide-pulsed DCs from HLA-A2.1/K^b transgenic mice, or DCs only. Peptides were used at a concentration of 50 μg/ml and DCs were used at 1×10^6 cell/mouse/injection. A total of three injections were given to each animal, 2 weeks apart. Mice injected with DCs only were used as controls. Mice were sacrificed 7 days after the last injection, and spleen cells were restimulated in vitro with 25 μg/ml of PSA-3 or PSA3A peptide with irradiated syngeneic spleen cell for 6 days. The cytokine production of these bulk cultures was tested. Peptide-pulsed Jurkat A2 (JA2 K^b) cells were used as stimulator cells. Jurkat 0201 K^b cells are stable transfectants of the human T cell leukemia line, Jurkat, which express the product of HLA-A0201K^b climeric gene (L. A. Sherman et al., 1992, Science 258:815–818).
The HLA-A2/K^b transgenic mouse has been previously reported to aid in the determination of the immunogenicity of HLA-A2 peptides for humans. This in vivo system was thus employed to further analyze and compare the immunogenicity of the PSA-3A peptide with that of the native PSA-3 peptide. DCs from the HLA-A2/K^b transgenic mice were pulsed with either the PSA-3 or the PSA-3A peptide and used to vaccinate HLA-A2b mice. DCs alone (no peptide) were also used as a control vaccine. After three vaccinations at 2-week intervals, T cells were isolated from splenocytes obtained 2 weeks after the last vaccination. The T cells were then incubated with Jurkat A2/K^b cells pulsed with the PSA-3 peptide, the PSA-3A peptide, or no peptide, and production of INF-γ was measured from supernatants after 24 h.

DCs = experiment: IL-12 production by peptide-pulsed DCs in the presence of T cells; type: cell-based, human
Protocol: It has been previously shown that the activation of T cells by peptidepulsed DCs is related to the level of IL-12 production by the DCs. Studies were therefore conducted to determine the levels of IL-12 production by DCs pulsed with PSA-3 and PSA-3A peptides in the presence of T cells. […] When DCs pulsed with the PSA3A peptide were incubated with both T cell lines, the DCs incubated with the T-PSA-3A line again produced higher levels of IL-12 than those peptide-pulsed DCs incubated with the T cell line T-PSA-3 (Table 3).

T-PSA-3A cells = experiment: IFN-γ production by T cell line stimulated with peptide-pulsed DCs (ELISA); type: cell-based, human; details: peptide 25 μg/ml
Protocol: as §1
Table 2: Production of IFN-γ by a T cell line stimulated with PSA-3 or agonist PSA-3A peptides. The PSA-specific T cell line T-PSA-3A was used as effector cells at IVS-3. T-PSA-3A cells were stimulated with irradiated HLA-A2 positive allogeneic DCs either pulsed with PSA-3 or PSA-3A peptide at a concentration of 25 μg/ml and an effector-to-APC ratio of 10:1. After 24-h culture supernatants were collected and screened for the secretion of IFN-γ. APC=antigen […].

HLA-A2 = molecular target: T1, HLA-A2 (Homo sapiens, UniProt P04439, D140Y/D185E/D98H/E176V/E277Q/G131W/G231S/I119V/I121R/I166T/I218V/L300P/L318F/N151K/N90K/P208A/P217A/Q86G/Q94H/R138H/R169H/T345S); experiment: Peptide binding to HLA-A2 on T2A2 cells (flow cytometry); details: peptide 0 to 50 μg/ml, FIG. 1A
T1 construct: endogenous in cells; host or cells: T2A2 / 174CEM-T2 (T2) transport deletion mutant cell line
Protocol: Single-color flow cytometric analysis. The method for single-color flow cytometric analysis was described previously (F. Guadagni et al., 1990, Cancer Res. 50:6248–6255). Briefly, cells were washed three times with cold Ca^2+ and Mg^2+-free DPBS and then stained for 1 h with mAb against HLA-A2 (A2,69, One Lambda, Inc., Canoga Park, Calif.), using 10 μg of the 1× working dilution per 10^6 cells. Mineral oil plasmacytoma-104E (Cappel/Organon Teknika Corp., West Chester, Pa.) was used as an isotype control. The cells were washed three times and incubated with a 1:100 dilution of fluorescein isothiocyanate (FITC)-labeled goat anti-mouse immunoglobulin (IgG) (Kirkegaard and Perry Laboratories, Gaithersburg, Md.). The cells were immediately analyzed using a Becton Dickinson FACScan equipped with a blue laser with an excitation of […] at 488 nm. Data were gathered from 10,000 live cells, stored and used to generate results.
Peptide Binding to HLA-A2. […] Briefly, 1×10^6 cells in serum-free Iscove's modified Dulbecco's complete medium were incubated with peptides at a concentration of 50 μg/ml in 24 well culture plates at 37° C. in 5% CO2. Flow cytometry for peptide binding was performed using T2 cells and single-color analysis. After cells were washed three times in DPBS, as described above, they were incubated for 1 h with HLA-A2 specific MAb (One Lambda, Inc.) using 10 μg of a 1× working dilution per 10^6 cells. UPC-10 (Cappel/Organon Teknika) was used as isotype control. The cells were washed three times and incubated with 1:100 dilution of FITC-labeled anti-mouse IgG (Becton Dickinson). Analysis was conducted with the FACScan, as described above. Cells were maintained on ice during all cell preparation and staining.
The four analogs were then tested for binding to the HLA-A2 positive T2A2 cells as described in the Examples section. The NCA peptide was previously shown to not bind to HLA-A2, and was used as a negative […] control. Peptides were added to T2A2 cells at concentrations of 0 to 50 μg/ml.

Sequence	Apoptotic CD8+ cells (CD8+ cells (T-PSA-3))	Production of IL-4 (T-PSA-3 cells)	Production of IL-10 (T-PSA-3 cells)	Production of TNF-α (T-PSA-3 cells)	Production of IFN-γ ([1]; label = peptide pulsed on immunizing DCs, Jurkat A2/K^b cells pulsed with PSA-3A (25 μg/ml))	Production of IFN-γ ([1]; label = peptide pulsed on immunizing DCs, Jurkat A2/K^b cells with no peptide)	Production of IFN-γ ([1]; label = peptide pulsed on immunizing DCs, T cells restimulated with Jurkat A2/K^b cells pulsed with PSA-3 (25 μg/ml))	Production of IFN-γ ([1]; mice immunized with DCs (no peptide), label = peptide pulsed on Jurkat A2/K^b cells)	IL-12 PRODUCTION (DCs; APC DC, T cell line T-PSA-3, peptide 25 μg/ml, 10:1, 24 h, IVS-4)	IL-12 PRODUCTION (DCs; APC DC, T cell line T-PSA-3A, peptide 25 μg/ml, 10:1, 24 h, IVS-4)	IL-12 PRODUCTION (DCs; no APC, T cell line T-PSA-3, peptide 25 μg/ml, 24 h)	IL-12 PRODUCTION (DCs; no APC, T cell line T-PSA-3A, peptide 25 μg/ml, 24 h)	PRODUCTION OF IFN-γ (T-PSA-3A cells; APC DCs, T-PSA-3A T cells present, effector-to-APC 10:1, 24 h, IVS-3)	PRODUCTION OF IFN-γ (T-PSA-3A cells; APC DCs, no T cell, 24 h)	PRODUCTION OF IFN-γ (T-PSA-3A cells; no APC, T-PSA-3A T cells present, 24 h)	Binding to HLA-A2 (relative fluorescence, MFI) (HLA-A2)
VISNDVCAQV (SEQ ID NO:1) [PSA-3, reference compound]	4.9% and 4.5%	Low or undetectable levels	Low or undetectable levels	No TNF-α could be detected	1,969.0 pg/ml/10^6 cells	<37.0 pg/ml/10^6 cells	1,908.0 pg/ml/10^6 cells	<37.0 pg/ml/10^6 cells	5.0 pg/ml/5 × 10^5 DC	10.5 pg/ml/5 × 10^5 DC	<0.6 pg/ml/5 × 10^5 DC	<0.6 pg/ml/5 × 10^5 DC	280 pg/mL	<15 pg/mL	<15 pg/mL	
VISNDVCAQL (SEQ ID NO:2) [1–163]																no binding
YISNDVCAQV (SEQ ID NO:4) [Y154]																higher levels than PSA-3
